From ChEMBL document CHEMBL1201862, “PubChem BioAssay data set” (2004)
Activity calls are given as the source filed them. For most assays here, no stated cut-off is given here; in the data, actives have a measured EC50 and inactives only a lower limit.

How the values were obtained:
Protein RecA = biological target: T1, Protein RecA (Mycobacterium tuberculosis, UniProt P9WHJ3); assay: Fluorescence Cell-Free Homogeneous Dose Retest to Identify Inhibitors of RecA-Intein Splicing Activity. [Related pubchem assays (depositor defined):AID2097, AID2223, AID489010, AID492950]; format: functional
T1 sequence (P9WHJ3 whole entry): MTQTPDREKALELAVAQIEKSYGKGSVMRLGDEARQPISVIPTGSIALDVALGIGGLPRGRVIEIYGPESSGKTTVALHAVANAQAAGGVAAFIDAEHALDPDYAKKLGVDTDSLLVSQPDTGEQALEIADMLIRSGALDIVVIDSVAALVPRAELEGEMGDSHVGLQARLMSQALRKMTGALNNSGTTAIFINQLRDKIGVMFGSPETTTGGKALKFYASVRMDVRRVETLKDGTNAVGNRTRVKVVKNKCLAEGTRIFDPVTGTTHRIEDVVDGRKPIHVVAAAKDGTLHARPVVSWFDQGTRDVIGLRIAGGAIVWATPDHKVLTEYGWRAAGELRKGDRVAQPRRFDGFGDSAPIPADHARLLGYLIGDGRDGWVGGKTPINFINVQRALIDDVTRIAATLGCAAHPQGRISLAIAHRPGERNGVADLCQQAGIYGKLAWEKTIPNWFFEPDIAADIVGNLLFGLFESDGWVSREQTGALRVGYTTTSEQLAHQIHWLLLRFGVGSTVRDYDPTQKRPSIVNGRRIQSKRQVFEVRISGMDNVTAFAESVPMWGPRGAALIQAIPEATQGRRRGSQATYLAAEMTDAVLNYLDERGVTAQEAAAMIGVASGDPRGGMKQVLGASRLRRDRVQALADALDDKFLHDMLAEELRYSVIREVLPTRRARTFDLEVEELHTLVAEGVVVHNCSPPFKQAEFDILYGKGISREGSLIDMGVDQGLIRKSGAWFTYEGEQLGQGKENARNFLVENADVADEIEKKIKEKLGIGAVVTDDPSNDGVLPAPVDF

Streptokinase A = biological target: T2, Streptokinase A (Streptococcus pyogenes serotype M1, UniProt P10520); assay: S. pyogenes streptokinase expression inhibitors, potency, dose response, plasminogen activation absorbance, OD405 (AID 1914); format: functional, Streptococcus pyogenes M1 GAS;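 further: secreted streptokinase activity via plasminogen activation per viability signal from cell pellet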
T2 sequence (P10520 whole entry): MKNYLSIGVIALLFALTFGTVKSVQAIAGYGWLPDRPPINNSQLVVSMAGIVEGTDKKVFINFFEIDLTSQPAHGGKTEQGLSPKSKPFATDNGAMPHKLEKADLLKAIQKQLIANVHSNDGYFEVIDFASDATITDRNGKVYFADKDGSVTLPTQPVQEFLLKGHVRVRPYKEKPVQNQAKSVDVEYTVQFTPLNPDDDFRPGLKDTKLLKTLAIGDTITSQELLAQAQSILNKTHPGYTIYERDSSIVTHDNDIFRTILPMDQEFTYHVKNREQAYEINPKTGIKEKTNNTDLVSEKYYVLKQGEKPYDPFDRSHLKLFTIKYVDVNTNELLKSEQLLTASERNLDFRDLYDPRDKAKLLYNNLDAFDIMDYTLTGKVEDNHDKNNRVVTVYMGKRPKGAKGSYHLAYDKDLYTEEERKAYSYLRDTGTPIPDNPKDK

[1] = tested on: Streptococcus sp. 'group A'; assay: growth inhibition of control SK(-) GAS strain, dose response, counter-screen for streptokinase expression inhibitor project, luminescence, kanamycin, BacTiterGlo, confirmation (AID 1900); format: functional, organism-based
[2] = biological target: T3, Replicative DNA helicase DnaB (Mycobacterium tuberculosis, UniProt P9WMR3); assay: DnaB intein splicing inhibitors, dose response, biochemical, cell-free fluorescence (AID 449749); format: functional
T3 sequence (P9WMR3 whole entry): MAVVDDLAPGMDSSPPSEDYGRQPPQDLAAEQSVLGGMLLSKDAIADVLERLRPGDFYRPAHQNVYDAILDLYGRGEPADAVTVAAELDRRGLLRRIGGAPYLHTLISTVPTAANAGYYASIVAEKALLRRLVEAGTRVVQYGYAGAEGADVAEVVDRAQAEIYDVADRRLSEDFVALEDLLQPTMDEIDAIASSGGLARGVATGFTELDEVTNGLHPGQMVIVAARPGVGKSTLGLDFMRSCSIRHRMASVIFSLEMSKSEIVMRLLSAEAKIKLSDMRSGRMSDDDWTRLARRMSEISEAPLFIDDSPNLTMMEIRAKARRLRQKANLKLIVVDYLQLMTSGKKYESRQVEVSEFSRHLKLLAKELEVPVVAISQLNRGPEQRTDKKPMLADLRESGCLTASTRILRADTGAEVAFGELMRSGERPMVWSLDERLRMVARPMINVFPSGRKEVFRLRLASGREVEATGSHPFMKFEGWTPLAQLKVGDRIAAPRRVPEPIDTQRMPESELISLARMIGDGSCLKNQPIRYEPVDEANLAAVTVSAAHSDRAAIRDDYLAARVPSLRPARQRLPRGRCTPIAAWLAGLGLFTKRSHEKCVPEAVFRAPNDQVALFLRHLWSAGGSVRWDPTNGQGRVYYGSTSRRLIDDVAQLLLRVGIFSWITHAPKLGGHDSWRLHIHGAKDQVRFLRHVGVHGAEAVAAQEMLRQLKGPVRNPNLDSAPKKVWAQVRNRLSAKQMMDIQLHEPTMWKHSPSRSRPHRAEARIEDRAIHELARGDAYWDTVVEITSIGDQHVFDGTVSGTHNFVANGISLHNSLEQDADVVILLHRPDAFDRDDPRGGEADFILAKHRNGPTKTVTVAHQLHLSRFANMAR

Streptococcus = assay: Group A Streptococcus viability loss, dose response, counter-screen for streptokinase expression inhibitor project, luminescence, BacTiterGlo (AID 1915); format: functional, organism-based;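 further: potency for reduction of bacterial viability or growth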
[3] = biological target: T4, Tyrosyl-DNA phosphodiesterase 2 (Homo sapiens, UniProt O95551); assay: human TDP2 enzyme inhibitors, dose response, biochemical, epi absorbance, IC50 (AID 743297)
T4 sequence (O95551 whole entry): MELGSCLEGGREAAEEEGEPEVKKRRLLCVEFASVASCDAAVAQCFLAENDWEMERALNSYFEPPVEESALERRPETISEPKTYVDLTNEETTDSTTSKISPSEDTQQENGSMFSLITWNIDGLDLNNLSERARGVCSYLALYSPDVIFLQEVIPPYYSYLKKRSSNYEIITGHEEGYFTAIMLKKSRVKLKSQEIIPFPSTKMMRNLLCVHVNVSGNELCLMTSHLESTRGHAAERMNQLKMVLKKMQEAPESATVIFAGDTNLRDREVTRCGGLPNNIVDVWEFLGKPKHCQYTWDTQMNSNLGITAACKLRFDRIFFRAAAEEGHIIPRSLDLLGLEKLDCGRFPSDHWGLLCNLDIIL

SMILES | EC50 (Protein RecA) | EC50 (Streptokinase A) | EC50 [1] | AC50 [2] | EC50 (Streptococcus) | IC50 [3]
CCc1nnc(NS(=O)(=O)c2ccc(NC(=S)NC(=O)/C=C/c3ccc(C(C)C)cc3)cc2)s1 | 33.4 µM (active) | 4.44 µM (active) | 2.39 µM (active) | 3150 nM (active) | 7.83 µM (active) | –
COc1ccc(S(=O)(=O)Nc2cc(SCC(=O)O)c(O)c3ccccc23)cc1 | 0.234 µM (active) | – | – | 885 nM (active) | – | 75.9 µM (inactive)
O=C1C(Nc2ccc(O)cc2)=C/C(=N/S(=O)(=O)c2cccs2)c2ccccc21 | 0.123 µM (active) | > 150 µM (not active) | 1.68 µM (active) | 128 nM (active) | 7.1 µM (active) | 0.698 µM (active)
COC(=O)C(O)(c1c(C)[nH]n(-c2ccccc2)c1=O)C(F)(F)F (configuration not stated) | 3.74 µM (active) | – | – | < 18 nM (active) | – | 12.7 µM (inactive)
CC1CC(=O)c2c(cc3c(-c4c(O)cc(O)c5c(O)c6c(cc45)OC(C)CC6=O)c(O)cc(O)c3c2O)O1 (configuration not stated) [CEPHALOCHROMIN] | 1.57 µM (active) | > 150 µM (not active) | 0.348 µM (active) | 1780 nM (active) | 0.991 µM (active) | –
